For series [1], the system named is leukemia L 1210. The series is described as follows: Antitumoral activity on leukemia L 1210 grafted i.p. in mice, sulfoxide and sulfone mixtures (Unit 71 of INSERM). In kind it is in vivo, mice (B6 D2 F1 /IFFA CREDO). As to conditions: D1, D5, D9. As to the method:
This activity was also studied on mice carrying leukemia L 1210 grafted i.p. This experimental tumor is the one most frequently used in the primary screening of cytostatic drugs.
These tests were conducted in parallel in two laboratories: at Unit 71 of the Institut National de la Sante et de la Recberche Mediecale (INSERM), ClermontFerrand, and at the Institut de Cancerologie et d' Immunogenetique (ICIG), Villejuif.
The antitumoral efficacy of the products according to the invention was compared with that of CNCC.
On day D:0, three-month-old male B6 D2 F1 mice received 10^5 cells of the leukemia strain L 1210 by intraperitoneal administration. The animals are divided up into groups of 8 to 10 animals for the control groups and 6 to 8 animals for the treated groups. On days D:1, D:5 and D:9, the animals receive the treatment at different doses by intraperitoneal or intravenous administration. The CNCC is administered as a suspension in olive oil. The products according to the invention are administered in physiological serum. The mortality is recorded every day. The survival median was determined for the treated animals and the control animals. The results are considered to be positive if the index I= [formula] is greater than 125.
The value .infin. means that 50% to 100% of the animals have survived to day D:90.
The cytostatic activity oi the products according to the invention on leukemia L 1210 was evaluated on B6 D2 F1 /IFFA CREDO mice according to the protocol described previously.
The following were administered intraperitoneally (i.p.): the mixture A1 A2 in the following proportions: A1 (70%) and A2 (30%), or the mixture B1 B2 in the same proportions, or CNCC at the following doses: 10 mg/kg, 20 mg/kg, 30 mg/kg, 40 mg/kg and 50 mg/kg. The results are given in Table II and invite the following remarks: […]

A short description of series [2]: Solubility in solvents allowing intravenous administration. As to conditions: solvents which allow intravenous administration. In kind it is physicochemical.
For series [3], the system named is Leukemia L 1210. The settings on record: 30 mg/kg i.p., days 1, 5 and 9; cited from earlier work.
Series [4] concerns Lewis pulmonary carcinoma. The settings on record: 30 mg/kg i.p., days 1, 5 and 9; cited from earlier work.
The subject of the next series is Melanocarcinoma B 16. As to conditions: 30 mg/kg i.p., days 1, 5 and 9; cited from earlier work.
In a further series the test system is Glioma 26. The settings on record: 30 mg/kg i.p., days 1, 5 and 9; cited from earlier work.
The test system of series [5] is Mammary adenocarcinoma TM2. The settings on record: 30 mg/kg i.p., days 1, 5 and 9; cited from earlier work.
The test system of a further series is Fibrosarcoma I.C.I.G. C1. On the set-up: key: N.S.: Not significant; .infin.: 50% more of the treated animals are cure. The settings on record: 30 mg/kg i.p., days 1, 5 and 9; cited from earlier work.
Series [6] deals with Carcinoma of the colon (colon 26). As to conditions: 30 mg/kg i.p., days 1, 5 and 9; cited from earlier work.
For a further series, the system named is Ovarian M 555. The settings on record: 30 mg/kg i.p., days 1, 5 and 9; cited from earlier work.
In series [7] the test system is types of tumor listed in Table I. As to conditions: cited from earlier work.

Each structure is given as a SMILES string.

`O=NN(CCCl)C(=O)NCCSSCCN(N=O)C(=O)NCCCl` [CNCC, N[N-(2-chloroethyl) N-nitrosocarbamoyl]-N'-[N(2-chloroethyl)carbamoyl] N'-nitrosocystamine]: the “T/C × 100” value with leukemia L 1210 [1] (10 mg/kg i.p.) was 250; in the series on leukemia L 1210 [1] (20 mg/kg i.p.) it was “.infin. (50 to 100% of the animals surviving to 90 days)”; in the series on leukemia L 1210 [1] (30 mg/kg i.p.), “.infin. (50 to 100% of the animals surviving to 90 days)”; in the series with leukemia L 1210 [1] (40 mg/kg i.p.), “.infin. (50 to 100% of the animals surviving to 90 days)”; with leukemia L 1210 [1] (50 mg/kg i.p.), 125. The “number of animals surviving to 90 days” value is on record as 0/6 with leukemia L 1210 [1] (10 mg/kg i.p.); 6/6 with leukemia L 1210 [1] (20 mg/kg i.p.); 6/6 with leukemia L 1210 [1] (30 mg/kg i.p.); 3/6 with leukemia L 1210 [1] (40 mg/kg i.p.); 0/6 with leukemia L 1210 [1] (50 mg/kg i.p.). The “solubility (in words)” value in series [2] is reported as “insolubility of this compound in the solvents which allow intravenous administration”. For the same compound, the “Increase in the survival time (I.L.S.: T/C × 100)” value in the series on Leukemia L 1210 [3] is recorded as “.infin. (50% more of the treated animals are cure)”; in series [4] it was “.infin. (50% more of the treated animals are cure)”; with Melanocarcinoma B 16, 200; in the series with Glioma 26, 200; in series [5], 185; with Fibrosarcoma I.C.I.G. C1, “N.S”. The “Increase in the survival time (I.L.S.: T/C × 100)” value in series [6] is given as “.infin. (50% more of the treated animals are cure)”; in the series on Ovarian M 555 it was above 254. The “activity against types of tumor (in words)” value in series [7] is on record as “active against all the types of tumor listed in Table I, with the exception of fibrosarcoma I.C.I.G”. Moreover, the “activity compared with the other chloroethylnitrosoureas (in words)” value in series [7] was “quantitatively greater than those observed with the other chloroethylnitrosoureas”.

The values above are taken from patent US5001158A, “Nitrosoureas compounds preparation thereof and utilization thereof in anticancerous” (Centre National de la Recherche Scientifique, priority 1990, dated 1991).
